Laboratory results as given in patent US8420122B2, “Process for the precipitation and isolation of 6,6-dimethyl-3-aza-bicyclo [3.1.0] hexane-amide compounds by controlled precipitation and pharmaceutical formulations containing same” (Merck Sharp & Dohme Corp., priority 2006, dated 2013).
Like-named read-outs stand apart in the source and are kept apart here.

Columns and labels:
[1] = Aggregated / median particle size and size distribution; type: physicochemical; conditions: for Aggregated particle size: additional runs A, B, C (mixing Tee)
Description: As used herein “median precipitated particle size” “median aggregate particle size” and “particulate size distribution” are determined by Laser Diffraction […] measurements.

[2] = Comparative PK Results-2: Day 5 multiple-dose pharmacokinetics; type: in vivo, human; conditions: for Tmax: read-out: Tmax, median; for half-life: read-out: t1/2, mean (converted)
Description: Pharmacokinetic samples for the determination of plasma concentrations of the compound of Formula B were collected on Day 5 of each period. PK samples were collected predose (0 hour), 1, 2, 3, 4, 6, 8, 12, and 24-hours postdose.

[3] = Chord length by Focused Beam Reflectance Measurements (FBRM); type: physicochemical; conditions: Example I first run, slurry, 0.41 M MTBE solution, 20° C.
Description: (§1) For the Examples which follow, particle size information was acquired by measuring the particulate material produced in the slurry using Focused Beam Reflectance Measurements (FBRM) performed with a Lasentec probe from Mettler Toledo in accordance with manufacturers directions for obtaining such measurements. Measurements were carried out on a sample of the slurry as obtained from the holding tank prior to vacuum distillation. The procedure and equipment can measure particulate materials over a size range of from 1 micron up to 1000 microns. Primary particle size was characterized qualitatively by Scanning Electron Microscopy (SEM). Changes in particle aggregation and aggregate morphology were observed by SEM under various conditions to determine softening point of the precipitated material. For SEM determination of softening point, a sample of the slurry was obtained periodically at each temperature interval as the slurry was heated. The solids in the sample were collected by filtration, dried under vacuum for 1 to 2 hours and the dried sample was examined using conventional SEM. […] The softening point was inferred from the sampling temperature at which the precipitate began to show loss of nodular particle appearance when examined by SEM in this manner.

[4] = Primary particle size and morphology by Scanning Electron Microscopy (SEM); type: physicochemical
Description: As used herein “primary particle” is the initially formed particles nucleated by combining a solution and anti-solvent. “Primary particle size” refers to the size of a primary particle and is determined by Scanning Electron Microscopy (SEM).
For the Examples which follow, particle size information was acquired by measuring the particulate material produced in the slurry using Focused Beam Reflectance Measurements (FBRM) performed with a Lasentec probe from Mettler Toledo in accordance with manufacturers directions for obtaining such measurements. Measurements were carried out on a sample of the slurry as obtained from the holding tank prior to vacuum distillation. The procedure and equipment can measure particulate materials over a size range of from 1 micron up to 1000 microns. Primary particle size was characterized qualitatively by Scanning Electron Microscopy (SEM). Changes in particle aggregation and aggregate morphology were observed by SEM under various conditions to determine softening point of the precipitated material. For SEM determination of softening point, a sample of the slurry was obtained periodically at each temperature interval as the slurry was heated. The solids in the sample were collected by filtration, dried under vacuum for 1 to 2 hours and the dried sample was examined using conventional SEM. […]

[5] = BET surface area (bulk surface area); type: physicochemical; conditions: for bulk surface area after distillation step: final granulate product
[6] = Bulk density / tapped density; type: physicochemical
Description: The particulate prepared above was recovered by pressure filtration and vacuum dried under house vacuum (approximately 60 to 70 torr) for 2 hours at 25 C followed by 8 hours of house vacuum at 35 C. The product was finish-dried at 45 C under house vacuum for an additional 16 hours. The dried particulate was evaluated and found to have a primary particle size ranging from less than 1 micron up to about 2 microns. The specific surface area (BET absorption method) was determined to be about 19.11 m2/g. The bulk density of isolated material was determined by weighing a 25 ml (unpacked) sample.

[7] = Softening point of precipitate (FBRM during controlled heating); type: physicochemical
Description: as §1
Verified by SEM observations, it was shown also that softening point could be determined from FBRM measurements (taken in accordance with manufactures instructions) made on a sample of the slurry undergoing controlled heating. […] FBRM measurements were obtained continuously during the heating cycle and the softening point was determined to be the temperature corresponding to the maxima in the particle count curve over the heating regime.
A precipitate slurry of the compound of Formula B was prepared by setting the flow control valves to supply 3400 ml/min. of n-heptane and 840 ml/min of the MTBE/compound of Formula B solution. […] An aliquot of the slurry thus produced was also evaluated to determine the softening point of the precipitate therein. […] In this manner the softening temperature was determined to be at 36.2 C.

[8] = system: QT/QTc intervals; test: QT/QTc study, mean QTcF change from time-matched baseline; conditions: for QT interval (mean QTcF change from time-matched baseline): Day 5, relative to placebo
Description: A study was conducted to evaluate the effect of both a therapeutic (800 mg TID) and a supratherapeutic (1200 mg TID) dose of the compound of Formula B at steay-state on QT/QTc intervals, as measured by mean maximum change from time-matched baseline ECG recordings compared to placebo.
Thirty-six subjects who met entry criteria received one of four study treatments for Days 1 to 5 of each treatment period. This study was conducted in a 4-way crossover manner so that subjects were randomized to receive the 4 study treatments in one of four sequences. Prior to treatment crossover, subjects completed an approximately 1-week outpatient washout period.

[9] = 800 mg TID, Day 5, healthy subjects, n = 31
[10] = human, plasma, oral, 800 mg TID, Day 5, healthy subjects, n = 31
[11] = human, plasma, oral, 1200 mg TID, Day 5, healthy subjects, n = 35
[12] = Example I first run, dried particulate
[13] = Example I second run, isolated material
[14] = Comparative Example I, stirred batch reactor
[15] = additional runs A, B, C, precipitate before distillation

## CC(C)(C)NC(=O)NC(C(=O)N1CC2C([C@H]1C(=O)NC(CC1CCC1)C(=O)C(N)=O)C2(C)C)C(C)(C)C (stereo partly shown) [Example C4]
[1]
  Aggregated particle size: 10-20 microns

## CC(C)(C)NC(=O)NC(C(=O)N1CC2C([C@H]1C(=O)NC(CC1CCC1)C(=O)C(N)=O)C2(C)C)C(C)(C)C (stereo partly shown) [compound of Formula B, 3-[2-(3-tert-Butyl-ureido)-3,3-dimethyl-butyryl]-6,6-dimethyl-3-aza-bicyclo[3.1.0]hexane-2-carboxylic acid (2-carbamoyl-1-cyclobutylmethyl-2-oxo-ethyl)-amide]
[2]; [9]
  CL/F, mean: 158 L/h
  Cmin, mean: 0.0619 µg/mL
[2]; 1200 mg TID, Day 5, healthy subjects, n = 35
  CL/F, mean: 196 L/h
[2]; human, plasma, oral, 800 mg, 800 mg TID, Day 5, healthy subjects, n = 31, read-out: AUC(τ), mean
  AUC: 5.32 µg·h/mL
[2]; human, plasma, oral, 800 mg, 800 mg TID, Day 5, healthy subjects, n = 31, sum of diastereomers, read-out: Cmax, mean
  Cmax: 1.69 µg/mL
[2]; human, plasma, oral, 800 mg, 800 mg TID, Day 5, read-out: Individual AUC(τ) values, range
  AUC: 3.25 to 8.9 µg·h/mL
[2]; human, plasma, oral, 800 mg, 800 mg TID, Day 5, read-out: Individual Cmax values, range
  Cmax: 1.15 to 2.5 µg/mL
[2]; human, plasma, oral, 1200 mg, 1200 mg TID, Day 5, healthy subjects, n = 35, read-out: AUC(τ), mean
  AUC: 6.5 µg·h/mL
[2]; human, plasma, oral, 1200 mg, 1200 mg TID, Day 5, healthy subjects, n = 35, sum of diastereomers, read-out: Cmax, mean
  Cmax: 1.94 µg/mL
[2]; human, plasma, oral, 1200 mg, 1200 mg TID, Day 5, read-out: Individual AUC(τ) values, range
  AUC: 2.5 to 9.4 µg·h/mL
[2]; human, plasma, oral, 1200 mg, 1200 mg TID, Day 5, read-out: Individual Cmax values, range
  Cmax: 1.1 to 3.15 µg/mL
[2]; [10]
  Vd/F: 530 L
  Tmax: 2 h
  half-life: 2.31 h
[2]; [11]
  Vd/F: 879 L
  Tmax: 2 h
  half-life: 3.01 h
[2]; human, plasma, oral, 1200 mg TID, Day 5, healthy subjects, n = 35, read-out: Cmin, mean
  concentration at 5 day: 0.0799 µg/mL
[3]
  average chord length of agglomerated particulate: 15.8 microns
[4]; [12]
  primary particle size: less than 1 micron up to about 2 microns
[4]; Example I second run, after distillation, isolated material
  primary particle size: less than 1 micron
[1]; [13]
  agglomerated average particle size: 11 microns
[1]; Example II precipitate
  median particulate size: 1.57 microns
[1]; Example III precipitate
  median particulate size: 1.46 microns
[5]; [14]
  BET Surface area: 1.76 m^2/g
[5]; [12]
  specific surface area (BET absorption method): about 19.11 m2/g
[5]; [13]
  average bulk surface area (BET): about 10.3 m^2/g
[5]; Example II precipitate
  bulk surface area: 8.14 m^2/g
[5]; Example III precipitate
  bulk surface area: 7.2 m^2/g
[6]; [14]
  bulk density: 0.16 g/mL
[6]; Example I first run, isolated material
  bulk density: 0.3 g/mL
[6]; Example I second run, isolated particulate
  bulk density average: 0.191 g/cm³
[6]; Example II precipitate
  bulk density: 0.23 g/mL
[6]; Example III precipitate
  bulk density: 0.18 g/mL
[7]; [14]
  softening point of the wet cake: below 30 °C
[7]; Example I first run, slurry aliquot heated 1 C/min
  softening temperature: 36.2 C
[7]; Example I second run, slurry distilled to about 35% of original volume
  softening point: 51.6 °C
[8]; 800 mg therapeutic dose (LD) TID
  QT interval (mean QTcF change from time-matched baseline): does not prolong the QT interval
[8]; 1200 mg supratherapeutic dose (HD) TID
  QT interval (mean QTcF change from time-matched baseline): does not prolong the QT interval

## COc1c(N2C[C@@H]3CCCN[C@@H]3C2)c(F)cc2c(=O)c(C(=O)O)cn(C3CC3)c12 [moxifloxacin, reference compound]
[8]; 400 mg QD, positive control
  QT/QTc interval (mean QTcF change from time-matched baseline): lengthened QT/QTc interval

## CC(C)(C)NC(=O)NC(C(=O)N1CC2C([C@H]1C(=O)NC(CC1CCC1)C(=O)C(N)=O)C2(C)C)C(C)(C)C (stereo partly shown) [Example A1]
[1]
  Aggregated particle size: 10-20 microns
[5]; [15]
  BET Surface area: 30.19 m^2/g

## CC(C)(C)NC(=O)NC(C(=O)N1CC2C([C@H]1C(=O)NC(CC1CCC1)C(=O)C(N)=O)C2(C)C)C(C)(C)C (stereo partly shown) [Example A2]
[1]
  Aggregated particle size: 10-20 microns
[5]; [15]
  BET Surface area: 16.44 m^2/g

## CC(C)(C)NC(=O)NC(C(=O)N1CC2C([C@H]1C(=O)NC(CC1CCC1)C(=O)C(N)=O)C2(C)C)C(C)(C)C (stereo partly shown) [Example B4]
[5]; [15]
  BET Surface area: 24.24 m^2/g

## CC(C)(C)NC(=O)NC(C(=O)N1CC2C([C@H]1C(=O)NC(CC1CCC1)C(=O)C(N)=O)C2(C)C)C(C)(C)C (stereo partly shown) [Example C2]
[1]
  Aggregated particle size: 0.25-18 microns
[5]; [15]
  BET Surface area: 32.41 m^2/g
[5]
  bulk surface area after distillation step: 6.31 m^2/g

## CC(C)(C)NC(=O)NC(C(=O)N1CC2C([C@H]1C(=O)NC(CC1CCC1)C(=O)C(N)=O)C2(C)C)C(C)(C)C (stereo partly shown) [Example B2]
[1]
  Aggregated particle size: 10-20 microns
[5]; [15]
  BET Surface area: 25.68 m^2/g

## CC(C)(C)NC(=O)NC(C(=O)N1CC2C([C@H]1C(=O)NC(CC1CCC1)C(=O)C(N)=O)C2(C)C)C(C)(C)C (stereo partly shown) [Example A3]
[1]
  Aggregated particle size: 20-30 microns
[5]; [15]
  BET Surface area: 17.41 m^2/g

## CC(C)(C)NC(=O)NC(C(=O)N1CC2C([C@H]1C(=O)NC(CC1CCC1)C(=O)C(N)=O)C2(C)C)C(C)(C)C (stereo partly shown) [Example B3]
[1]
  Aggregated particle size: 10-20 microns
[5]; [15]
  BET Surface area: 32.00 m^2/g

## CC(C)(C)NC(=O)NC(C(=O)N1CC2C([C@H]1C(=O)NC(CC1CCC1)C(=O)C(N)=O)C2(C)C)C(C)(C)C (stereo partly shown) [Example C1]
[1]
  Aggregated particle size: 0.25-25.5 microns
[5]; [15]
  BET Surface area: 24.85 m^2/g
[5]
  bulk surface area after distillation step: 6.13 m^2/g

## CC(C)(C)NC(=O)NC(C(=O)N1CC2C([C@H]1C(=O)NC(CC1CCC1)C(=O)C(N)=O)C2(C)C)C(C)(C)C (stereo partly shown) [Example C3]
[1]
  Aggregated particle size: 10-20 microns

## CC(C)(C)NC(=O)NC(C(=O)N1CC2C([C@H]1C(=O)NC(CC1CCC1)C(=O)C(N)=O)C2(C)C)C(C)(C)C (stereo partly shown) [Example B1]
[1]
  Aggregated particle size: 10-20 microns
[5]; [15]
  BET Surface area: 32.75 m^2/g
